Experimental findings from PubChem BioAssay AID1996 are described below.

In brackets after ≈: the same amount, converted by molar mass.

For this data set the following is noted: buffer; pH 7.4; 200.0 µM.
`O=C(COC(=O)c1ccc(Cl)cc1)NCC1CCCCC1`: the kinetic solubility (as a rule, the concentration staying in solution when a stock, usually in DMSO, is diluted into the medium) came out at 5.4 µg/mL (≈ 17.4 µM).
In the case of `Cc1ccc(O)c(NC(=O)c2cc(-c3ccco3)on2)c1` it was 1.2 µg/mL (≈ 4.22 µM); in that of `CN1CC(C(=O)c2ccc(Cl)cc2)C(c2ccc(N(C)C)cc2)C1` (configuration not stated), 47.1 µg/mL (≈ 137 µM).
`Cc1ccc(CNc2ccc3c(c2)nc(C)n3C)cc1` returned a kinetic solubility of 38.3 µg/mL (≈ 144 µM).
In the case of `NC(=O)c1ccc(NC(=O)CCN2C(=O)c3ccccc3C2=O)cc1` it was 10.6 µg/mL (≈ 31.4 µM).
Take `Cc1cccc(NC2=C(Cl)C(=O)OC2OC(C)C)c1` (configuration not stated): the solubility (kinetic) was over 42.3 µg/mL.
Take `CC(NC(=O)NC(=O)c1ccc(Cl)cc1)c1ccccc1` (configuration not stated): the kinetic solubility was 0.4 µg/mL (≈ 1.32 µM).
`Cc1ccccc1OCC(=O)NCCCNC(=O)c1cccnc1` had a kinetic solubility of over 49.1 µg/mL.
For `O=C(O)CSc1c2c(nc3cc(C(=O)N4CCCC4)ccc13)CCCC2`, the solubility (kinetic) amounted to 48.6 µg/mL (≈ 131 µM).
In the case of `COc1ccccc1NC(=O)C1CCOC1=O` (configuration not stated) it was over 35.3 µg/mL; in that of `Cl.Clc1cccc(OCCN2CCCC2)c1`, 37.2 µg/mL.
`Cc1cnc([N+](=O)[O-])n1CCOC(=O)NC(=O)c1ccc(F)cc1`: the kinetic solubility is over 50.4 µg/mL.
`O=C1NC(=Nc2cccnc2)S/C1=C\c1cccc(F)c1`: the solubility (kinetic) worked out at 3.2 µg/mL (≈ 10.7 µM).
As for `O/N=C/Cc1[nH]c2ccccc2c1-c1ccccc1`, the kinetic solubility is 34.8 µg/mL (≈ 139 µM). This solubility kinetic is about 11-fold higher than that of the molecule before.
`Cc1cccc(NC(=O)C(C)n2cc([N+](=O)[O-])cn2)n1` (configuration not stated) yielded a solubility (kinetic) of over 41.3 µg/mL.
For the molecule `CC(C)(C)c1ccc(-c2nc3n(c(=O)c2C#N)CCS3)cc1`, the kinetic solubility came to 3.5 µg/mL (≈ 11.2 µM).
On to `CCNC(=O)COC(=O)CCNC(=O)c1cccc(C)c1`, for which the kinetic solubility amounted to 35.1 µg/mL (≈ 120 µM).
As for `COc1ccc(NC(=O)c2cc3ccccc3cc2O)cc1`, the kinetic solubility came to 1.5 µg/mL (≈ 5.11 µM).
In the case of `Cn1ccc(C(=O)Nc2ccc3c(c2)OCCO3)n1`, the solubility (kinetic) was over 38.9 µg/mL.
In the case of `Cc1cc(C)c2c(N)c(C(=O)c3ccccc3Cl)sc2n1` it was 0.4 µg/mL (≈ 1.26 µM).
Take `O=C(CN1CCCC1)Nc1ccc([N+](=O)[O-])cc1`: the solubility (kinetic) was over 37.4 µg/mL.
As for `COc1ccccc1OCC(O)CNCc1ccc2c(c1)OCO2` (configuration not stated), the kinetic solubility was 47.4 µg/mL (≈ 143 µM).
Consider `CC(CNC(=O)c1ccc2c(c1)OCO2)c1ccc([N+](=O)[O-])cc1` (configuration not stated), for which the solubility (kinetic) stood at 2 µg/mL (≈ 6.09 µM).
The molecule `Cl.c1coc(C2=NCCc3ccccc32)c1` had a solubility (kinetic) of 27.9 µg/mL.
Take `CCOC(=O)N1CCc2c(sc3ncn(Cc4ccc(F)cc4)c(=O)c23)C1`: the solubility (kinetic) turned out to be 20.8 µg/mL (≈ 53.7 µM).
On to `CC(C)N(Cc1ccccc1)S(=O)(=O)c1cccs1`, for which the solubility (kinetic) turned out to be 13 µg/mL (≈ 44 µM). This solubility kinetic is about 1.6-fold lower than that of the molecule before.
As to `CCOC(=O)c1ccc(NC2=CC(=O)CC(c3ccco3)C2)cc1` (configuration not stated), the kinetic solubility amounted to 9.6 µg/mL (≈ 29.5 µM).
As to `Cc1ccc2c(CC(=O)NC3CCS(=O)(=O)C3)coc2c1C` (configuration not stated), the solubility (kinetic) is over 48.2 µg/mL.
Turning to `O=[N+]([O-])c1ccc(CNc2cccc(Cl)c2)s1`, the solubility (kinetic) turned out to be 6.3 µg/mL (≈ 23.4 µM).
In turn, `O=C(Nc1cc([N+](=O)[O-])ccc1Cl)c1cccnc1` registered a solubility (kinetic) of 26.4 µg/mL (≈ 95.1 µM).
In turn, `COc1cccc(C(=O)COc2cccc(NC(=O)c3ccco3)c2)c1` registered a kinetic solubility of 14 µg/mL (≈ 39.8 µM).
Turning to `COc1cccc(CNC(=O)c2ccccc2-c2ccccc2)c1`, the kinetic solubility was found to be 2.1 µg/mL (≈ 6.62 µM).
As to `O=C(Cc1ccccc1)NCC(=O)N1CCCCC1`, the solubility (kinetic) is over 39.1 µg/mL.
For the molecule `CC(C)Oc1cccc(C(=O)C2CCCN(S(C)(=O)=O)C2)c1` (configuration not stated), the kinetic solubility was over 48.8 µg/mL.
Regarding `c1ccc(Nc2nc(NCCN3CCOCC3)nc(Nc3ccccc3)n2)cc1`, the solubility (kinetic) worked out at 36 µg/mL (≈ 92 µM).
Molecule `COCCNC(=O)c1ccc2c(Cl)c3c(nc2c1)CCC3` returned a kinetic solubility of over 45.7 µg/mL.
The molecule `O=C(OCC(=O)c1ccc[nH]1)c1ccc2ccccc2n1` came in with a kinetic solubility of 30 µg/mL (≈ 107 µM).
As for `COc1ccc2c(c1)sc1nc(=O)ccn12`, the kinetic solubility is over 34.8 µg/mL.
In the case of `CCOC(=O)Cc1csc(NC(=O)c2ccc(F)cc2)n1` it was over 46.2 µg/mL.
`Cc1cc(C)c(NC(=O)CCCN2CCCC2)c(C)c1` displayed a solubility (kinetic) of over 41.2 µg/mL.
In the case of `CSCCC(NC(=O)c1cccc(C)c1)C(=O)NCc1cccs1` (configuration not stated) it was over 54.4 µg/mL; in that of `O=C1c2ccccc2C(=O)N1CC(O)COc1ccc(Cl)cc1` (configuration not stated), 6.1 µg/mL (≈ 18.4 µM).
Consider `CC(C)=CC(=O)Nc1ccc(S(=O)(=O)Nc2ccccn2)cc1`, for which the solubility (kinetic) was 46.2 µg/mL (≈ 139 µM).
Under `COc1cc(-c2cc(C(=O)OCC(=O)NC3CC3)c3ccccc3n2)cc(OC)c1OC` stands 3.7 µg/mL (≈ 8.48 µM); under `COc1cc(C(=O)N2C[C@H]3C[C@@H](C2)c2cccc(=O)n2C3)cc(OC)c1OC`, over 57.7 µg/mL; under `COc1ccc(S(=O)(=O)NCc2cccnc2)cc1Br`, 35.5 µg/mL (≈ 99.4 µM).
`COc1ccc(-c2nc(C#N)c(N3CCC(C)CC3)o2)cc1` registered a solubility (kinetic) of 0.3 µg/mL (≈ 1.01 µM). This solubility kinetic is about 120-fold lower than that of the molecule before.
`COc1ccc(OCC(=O)OC(C)CN2CCCCC2)cc1` (configuration not stated) gave a kinetic solubility of over 46.1 µg/mL.
`Cc1cc(CNC(=O)c2cccnc2Cl)c2ccccc2n1` returned a solubility (kinetic) of 39.1 µg/mL (≈ 125 µM).
Turning to `O=C(Nc1nnc(C2CC2)s1)C1COc2ccccc2O1` (configuration not stated), the solubility (kinetic) was over 45.5 µg/mL.
Regarding `Cc1ccc(NC(=S)Nc2ccc(F)cc2)cc1C`, the solubility (kinetic) was 12.2 µg/mL (≈ 44.5 µM).
In the case of `COc1ccccc1CNC(=O)CCCc1cn(C)c2ccccc12` it was 8.2 µg/mL (≈ 24.4 µM).
